Data reported in patent US11230530B2, “Human plasma kallikrein inhibitors” (BioCryst Pharmaceuticals, Inc., priority 2014, dated 2022).
pKi: −log10 of the molar value.

Key:
human plasma kallikrein = human plasma kallikrein (Homo sapiens (Human), UniProt P03952); assay: Plasma kallikrein activity assay (chromogenic substrate S2302); assay type: biochemical; conditions: 2 nM kallikrein, 80 μM S2302, 30° C., pH 7.8; Cheng-Prusoff; reported as ranges
Procedure: Plasma kallikrein activity assay. The effect of compounds of the invention on human plasma kallikrein activity was determined using the chromogenic substrates (DiaPharma Group, Inc., West Chester, Ohio, USA). In these experiments, 2 nM kallikrein (Enzyme Research Laboratories, South Bend, Ind., USA) was incubated with 80 μM S2302 (H-D-Pro-Phe-Arg-p-nitroaniline) in the absence or presence of increasing concentrations of compounds of the invention in a final volume of 200 μL Tris-HCl buffer (200 mM NaCl; 2.5 mM CaCl2; 50 mM Tris-HCl, pH 7.8).
Data were analyzed using SigmaPlot software (Systat Software, Inc., San Jose, Calif., USA) (Four Parameter Logistic Curve).

[1] = tested on: patients with hereditary angioedema (HAE); conditions: in vivo; cited from earlier work

Chain of human plasma kallikrein (P03952 whole entry, looked up): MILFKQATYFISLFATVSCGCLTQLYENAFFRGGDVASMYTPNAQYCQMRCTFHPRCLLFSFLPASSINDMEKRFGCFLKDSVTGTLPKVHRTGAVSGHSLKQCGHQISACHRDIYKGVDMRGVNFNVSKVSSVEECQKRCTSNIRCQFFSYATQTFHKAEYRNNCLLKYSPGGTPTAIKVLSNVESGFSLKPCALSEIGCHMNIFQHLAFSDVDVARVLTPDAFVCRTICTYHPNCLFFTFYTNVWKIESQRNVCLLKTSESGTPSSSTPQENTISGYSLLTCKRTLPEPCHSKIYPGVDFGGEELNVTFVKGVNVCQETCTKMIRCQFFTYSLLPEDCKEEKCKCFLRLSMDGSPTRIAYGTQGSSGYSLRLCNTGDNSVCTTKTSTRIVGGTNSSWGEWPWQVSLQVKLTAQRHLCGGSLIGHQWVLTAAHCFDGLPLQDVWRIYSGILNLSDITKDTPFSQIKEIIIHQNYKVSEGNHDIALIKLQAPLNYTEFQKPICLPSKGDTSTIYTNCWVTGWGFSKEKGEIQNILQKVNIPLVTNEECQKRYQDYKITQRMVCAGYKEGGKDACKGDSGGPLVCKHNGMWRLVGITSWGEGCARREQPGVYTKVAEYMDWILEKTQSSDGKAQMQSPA
Chain of human plasma kallikrein (P03952 whole entry partner, looked up): as the sequence (P03952 whole entry, looked up) above

SMILES	pKi (human plasma kallikrein)	treating HAE [1]
Cc1cc(C(=O)Nc2cccc(C(NCC3CC3)c3cc(O)ccc3O)c2)n(-c2cccc(CN)c2)n1 (centres unmarked) [Compound 146g, 1-(3-(Aminomethyl)phenyl)-N-(3-((cyclopropylmethylamino)(2,5-dihydroxyphenyl)methyl)phenyl)-3-methyl-1H-pyrazole-5-carboxamide]	7.30 to 10.00	–
NC(N)=NCCC[C@@H](N)C(=O)N[C@@H](CCCN=C(N)N)C(=O)N1CCC[C@H]1C(=O)N1C[C@H](O)C[C@H]1C(=O)NCC(=O)N[C@@H](Cc1cccs1)C(=O)N[C@@H](CO)C(=O)N1Cc2ccccc2C[C@@H]1C(=O)N1[C@H](C(=O)N[C@@H](CCCN=C(N)N)C(=O)O)C[C@@H]2CCCC[C@@H]21 [Icatibant]	–	effective
